Test results reported in patent US20170190671A1, “BIS(ARYL)CATECHOL DERIVATIVES AS HERBICIDES” (E I DU PONT DE NEMOURS AND COMPANY, priority 2014, published 2017).

What was measured:
Experiment in all cases: Test C preemergence
Type in all cases: in vivo
[1] = test system: waterhemp (common waterhemp, Amaranthus rudis); details: Amaranthus tuberculatus, pre-emergence, scale 0 to 100, read-out: Plant response rating, Waterhemp
In short: (§1)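 After preemergence treatment of seeds in loam-sand soil or foliar treatment at the 1- to 4-leaf stage of plants in peat/vermiculite medium, pots were kept 13-15 days in the greenhouse. Each was then scored visually, 0 meaning no effect and 100 complete control.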

[2] = test system: yellow nutsedge (Cyperus esculentus); details: Cyperus, pre-emergence, 336 h, scale 0 to 100, read-out: Plant response rating, Nutsedge, Yellow
In short: as §1

[3] = test system: pigweed (Amaranthus retroflexus); details: Amaranthus retroflexus, pre-emergence, 336 h, scale 0 to 100, read-out: Plant response rating, Pigweed
In short: as §1

[4] = test system: velvetleaf (Abutilon theophrasti); details: Abutilon theophrasti, pre-emergence, scale 0 to 100, read-out: Plant response rating, Velvetleaf
In short: as §1

[5] = test system: ragweed (common ragweed, Ambrosia elatior); details: Ambrosia artemisiifolia, pre-emergence, 336 h, scale 0 to 100, read-out: Plant response rating, Ragweed
In short: as §1

soybean (Glycine max) = details: Glycine max, pre-emergence, scale 0 to 100, read-out: Plant response rating, Soybean
In short: as §1

[6] = test system: winter wheat (Triticum aestivum); details: Triticum aestivum, pre-emergence, 336 h, scale 0 to 100, read-out: Plant response rating, Wheat
In short: as §1

[7] = test system: giant foxtail (Setaria faberii); details: Setaria faberi, pre-emergence, 336 h, scale 0 to 100, read-out: Plant response rating, Foxtail, Giant
In short: as §1

[8] = test system: blackgrass (Alopecurus myosuroides); details: Alopecurus myosuroides, pre-emergence, 336 h, scale 0 to 100, read-out: Plant response rating, Blackgrass
In short: as §1

corn (Zea mays) = details: Zea mays, pre-emergence, 336 h, scale 0 to 100
In short: as §1

[9] = test system: large (Lg) crabgrass (Digitaria sanguinalis); details: Digitaria sanguinalis, pre-emergence, 336 h, scale 0 to 100, read-out: Plant response rating, Crabgrass, Large
In short: as §1

[10] = test system: morningglory (Ipomoea coccinea); details: Ipomoea, pre-emergence, 336 h, scale 0 to 100, read-out: Plant response rating, Morningglory
In short: as §1

[11] = test system: oilseed rape (Brassica napus); details: Brassica napus, pre-emergence, scale 0 to 100, read-out: Plant response rating, Oilseed Rape
In short: as §1

[12] = test system: Italian ryegrass (Lolium multiflorum); details: Lolium multiflorum, pre-emergence, 336 h, scale 0 to 100, read-out: Plant response rating, Ryegrass, Italian
In short: as §1

[13] = test system: lambsquarters (Chenopodium album); details: Chenopodium album, pre-emergence, 336 h, scale 0 to 100, read-out: Plant response rating, Lambsquarters
In short: as §1

In the case of `Fc1ccc(F)c(Oc2ncc(Cl)cn2)c1Oc1ncc(Cl)cn1` [Compound 34, 2,2′-[(3,6-difluoro-1,2-phenylene)bis(oxy)]bis[5-chloropyrimidine]], the pest or weed control at 31 g/ha ([1]; 31 g ai/ha, preemergence) is reported as 100%, the pest or weed control at 62 g/ha ([1]; 62 g ai/ha, preemergence) is reported as 100% and the pest or weed control at 125 g/ha ([1]; 125 g ai/ha, preemergence) is reported as 100%. It also gave a pest or weed control at 16 g/ha ([1]; Preemergence, 16 g ai/ha) of 100%, a pest or weed control at 31 g/ha ([2]; 31 g ai/ha, preemergence) of 0% and a pest or weed control at 62 g/ha ([2]; 62 g ai/ha, preemergence) of 0%. The pest or weed control at 125 g/ha ([2]; 125 g ai/ha, preemergence) was 5%, the pest or weed control at 16 g/ha ([2]; Preemergence, 16 g ai/ha) was 0% and the pest or weed control at 31 g/ha ([3]; 31 g ai/ha, preemergence) was 100%. For the same compound, the pest or weed control at 62 g/ha ([3]; 62 g ai/ha, preemergence) was 100%, the pest or weed control at 125 g/ha ([3]; 125 g ai/ha, preemergence) was 100% and the pest or weed control at 16 g/ha ([3]; Preemergence, 16 g ai/ha) was 100%. The pest or weed control at 31 g/ha ([4]; 31 g ai/ha, preemergence) was 45%, the pest or weed control at 62 g/ha ([4]; 62 g ai/ha, preemergence) was 70% and the pest or weed control at 125 g/ha ([4]; 125 g ai/ha, preemergence) was 80%. It also gave a pest or weed control at 16 g/ha ([4]; Preemergence, 16 g ai/ha) of 35%, a pest or weed control at 31 g/ha ([5]; 31 g ai/ha, preemergence) of 0% and a pest or weed control at 62 g/ha ([5]; 62 g ai/ha, preemergence) of 25%. It also gave a pest or weed control at 125 g/ha ([5]; 125 g ai/ha, preemergence) of 40%, a pest or weed control at 16 g/ha ([5]; Preemergence, 16 g ai/ha) of 0% and a plant injury at 31 g/ha (soybean (Glycine max); 31 g ai/ha, preemergence) of 20%. For the same compound, the plant injury at 62 g/ha (soybean (Glycine max); 62 g ai/ha, preemergence) was 45%, the plant injury at 125 g/ha (soybean (Glycine max); 125 g ai/ha, preemergence) was 55% and the plant injury at 16 g/ha (soybean (Glycine max); Preemergence, 16 g ai/ha) was 5%. The plant injury at 31 g/ha ([6]; 31 g ai/ha, preemergence) was 0%, the plant injury at 62 g/ha ([6]; 62 g ai/ha, preemergence) was 15% and the plant injury at 125 g/ha ([6]; 125 g ai/ha, preemergence) was 10%. The plant injury at 16 g/ha ([6]; Preemergence, 16 g ai/ha) was 0%, the pest or weed control at 31 g/ha ([7]; 31 g ai/ha, preemergence) was 98% and the pest or weed control at 62 g/ha ([7]; 62 g ai/ha, preemergence) was 100%. It also gave a pest or weed control at 125 g/ha ([7]; 125 g ai/ha, preemergence) of 100%, a pest or weed control at 16 g/ha ([7]; Preemergence, 16 g ai/ha) of 70% and a pest or weed control at 31 g/ha ([8]; 31 g ai/ha, preemergence) of 0%. For the same compound, the pest or weed control at 62 g/ha ([8]; 62 g ai/ha, preemergence) was 60%, the pest or weed control at 125 g/ha ([8]; 125 g ai/ha, preemergence) was 70% and the pest or weed control at 16 g/ha ([8]; Preemergence, 16 g ai/ha) was 0%. The Corn plant response rating (crop injury, 0 = no effect, 100 = complete kill) at 31 g/ha (corn (Zea mays); 31 g ai/ha, preemergence) was 5%, the Corn plant response rating (crop injury, 0 = no effect, 100 = complete kill) at 62 g/ha (corn (Zea mays); 62 g ai/ha, preemergence) was 20% and the Corn plant response rating (crop injury, 0 = no effect, 100 = complete kill) at 125 g/ha (corn (Zea mays); 125 g ai/ha, preemergence) was 40%. For the same compound, the Corn plant response rating (crop injury, 0 = no effect, 100 = complete kill) at 16 g/ha (corn (Zea mays); Preemergence, 16 g ai/ha) was 0%, the pest or weed control at 31 g/ha ([9]; 31 g ai/ha, preemergence) was 85% and the pest or weed control at 62 g/ha ([9]; 62 g ai/ha, preemergence) was 98%. For the same compound, the pest or weed control at 125 g/ha ([9]; 125 g ai/ha, preemergence) was 100%, the pest or weed control at 16 g/ha ([9]; Preemergence, 16 g ai/ha) was 80% and the pest or weed control at 31 g/ha ([10]; 31 g ai/ha, preemergence) was 20%. The pest or weed control at 62 g/ha ([10]; 62 g ai/ha, preemergence) was 60%, the pest or weed control at 125 g/ha ([10]; 125 g ai/ha, preemergence) was 90% and the pest or weed control at 16 g/ha ([10]; Preemergence, 16 g ai/ha) was 0%. It also gave a plant injury at 31 g/ha ([11]; 31 g ai/ha, preemergence) of 90%, a plant injury at 62 g/ha ([11]; 62 g ai/ha, preemergence) of 90% and a plant injury at 125 g/ha ([11]; 125 g ai/ha, preemergence) of 90%. The plant injury at 16 g/ha ([11]; Preemergence, 16 g ai/ha) was 30%, the pest or weed control at 31 g/ha ([12]; 31 g ai/ha, preemergence) was 5% and the pest or weed control at 62 g/ha ([12]; 62 g ai/ha, preemergence) was 10%. For the same compound, the pest or weed control at 125 g/ha ([12]; 125 g ai/ha, preemergence) was 35%, the pest or weed control at 16 g/ha ([12]; Preemergence, 16 g ai/ha) was 0% and the pest or weed control at 31 g/ha ([13]; 31 g ai/ha, preemergence) was 90%. It also gave a pest or weed control at 62 g/ha ([13]; 62 g ai/ha, preemergence) of 100%, a pest or weed control at 125 g/ha ([13]; 125 g ai/ha, preemergence) of 98% and a pest or weed control at 16 g/ha ([13]; Preemergence, 16 g ai/ha) of 80%.
